Laboratory results as given in ChEMBL document CHEMBL2074163, “Identification of monocarboxylate transporter 8 as a specific thyroid hormone transporter” (J Biol Chem, 2003).

Experiments:
Type in all cases: functional, cell-based
Conditions in all cases: Oocyte
[1] = target: Monocarboxylate transporter 8 (Rattus norvegicus) (UniProt Q8K1P8); experiment: TP_TRANSPORTER: inhibition of 3,3',5-triiodothyronine uptake (3,3',5-triiodothyronine:10nM, Tyrosine: 100 uM) in Xenopus laevis oocytes; parameters: scale not given: the % may be the effect or the level left
Chain of Monocarboxylate transporter 8 (Rattus norvegicus) (Q8K1P8 whole entry): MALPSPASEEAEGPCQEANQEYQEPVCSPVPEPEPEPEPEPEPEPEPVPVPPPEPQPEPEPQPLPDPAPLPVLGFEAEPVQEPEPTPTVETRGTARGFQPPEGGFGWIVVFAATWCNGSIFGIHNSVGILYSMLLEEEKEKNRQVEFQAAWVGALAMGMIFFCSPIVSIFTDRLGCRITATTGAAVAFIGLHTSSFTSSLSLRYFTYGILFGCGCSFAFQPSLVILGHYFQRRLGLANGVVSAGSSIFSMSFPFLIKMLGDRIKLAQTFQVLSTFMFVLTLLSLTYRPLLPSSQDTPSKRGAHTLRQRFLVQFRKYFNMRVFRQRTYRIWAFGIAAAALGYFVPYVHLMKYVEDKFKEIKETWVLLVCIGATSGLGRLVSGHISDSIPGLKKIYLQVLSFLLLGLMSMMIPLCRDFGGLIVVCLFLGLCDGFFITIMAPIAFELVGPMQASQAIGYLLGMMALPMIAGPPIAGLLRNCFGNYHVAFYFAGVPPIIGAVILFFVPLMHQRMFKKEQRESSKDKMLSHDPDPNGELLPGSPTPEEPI

[2] = target: Monocarboxylate transporter 8 (Rattus norvegicus) (UniProt Q8K1P8); experiment: TP_TRANSPORTER: inhibition of thyroxine uptake (thyroxine:10nM, Tyrosine: 100 uM) in Xenopus laevis oocytes; parameters: scale not given: the % may be the effect or the level left
[3] = target: Monocarboxylate transporter 8 (Rattus norvegicus) (UniProt Q8K1P8); experiment: TP_TRANSPORTER: uptake in Xenopus laevis oocytes
[4] = target: Monocarboxylate transporter 8 (Rattus norvegicus) (UniProt Q8K1P8); experiment: TP_TRANSPORTER: inhibition of thyroxine uptake (thyroxine:10nM, N-bromoacetyl-3,3',5-triiodothyronine: 10 uM) in Xenopus laevis oocytes; parameters: scale not given: the % may be the effect or the level left
[5] = target: Monocarboxylate transporter 8 (Rattus norvegicus) (UniProt Q8K1P8); experiment: TP_TRANSPORTER: inhibition of 3,3',5-triiodothyronine uptake (3,3',5-triiodothyronine:10nM, N-bromoacetyl-3,3',5-triiodothyronine: 10 uM) in Xenopus laevis oocytes; parameters: scale not given: the % may be the effect or the level left
[6] = target: Monocarboxylate transporter 8 (Rattus norvegicus) (UniProt Q8K1P8); experiment: TP_TRANSPORTER: inhibition of 3,3',5-triiodothyronine uptake (3,3',5-triiodothyronine:10nM, bromosul-fophthalein: 100 uM) in Xenopus laevis oocytes; parameters: scale not given: the % may be the effect or the level left
[7] = target: Monocarboxylate transporter 8 (Rattus norvegicus) (UniProt Q8K1P8); experiment: TP_TRANSPORTER: inhibition of thyroxine uptake (thyroxine:10nM, bromosul-fophthalein: 100 uM) in Xenopus laevis oocytes; parameters: scale not given: the % may be the effect or the level left
[8] = target: Monocarboxylate transporter 8 (Rattus norvegicus) (UniProt Q8K1P8); experiment: TP_TRANSPORTER: inhibition of thyroxine uptake (thyroxine:10nM, L-thyroxine: 10 uM) in Xenopus laevis oocytes; parameters: scale not given: the % may be the effect or the level left
[9] = target: Monocarboxylate transporter 8 (Rattus norvegicus) (UniProt Q8K1P8); experiment: TP_TRANSPORTER: inhibition of 3,3',5-triiodothyronine uptake (3,3',5-triiodothyronine:10nM, L-thyroxine: 10 uM) in Xenopus laevis oocytes; parameters: scale not given: the % may be the effect or the level left
[10] = target: Monocarboxylate transporter 8 (Rattus norvegicus) (UniProt Q8K1P8); experiment: TP_TRANSPORTER: inhibition of 3,3',5-triiodothyronine uptake (3,3',5-triiodothyronine:10nM, D-3,3',5-triiodothyronine: 10 uM) in Xenopus laevis oocytes; parameters: scale not given: the % may be the effect or the level left
[11] = target: Monocarboxylate transporter 8 (Rattus norvegicus) (UniProt Q8K1P8); experiment: TP_TRANSPORTER: inhibition of thyroxine uptake (thyroxine:10nM, D-3,3',5-triiodothyronine: 10 uM) in Xenopus laevis oocytes; parameters: scale not given: the % may be the effect or the level left
[12] = target: Monocarboxylate transporter 8 (Rattus norvegicus) (UniProt Q8K1P8); experiment: TP_TRANSPORTER: inhibition of 3,3',5-triiodothyronine uptake (3,3',5-triiodothyronine:10nM, D-thyroxine: 10 uM) in Xenopus laevis oocytes; parameters: scale not given: the % may be the effect or the level left
[13] = target: Monocarboxylate transporter 8 (Rattus norvegicus) (UniProt Q8K1P8); experiment: TP_TRANSPORTER: inhibition of thyroxine uptake (thyroxine:10nM, D-thyroxine: 10 uM) in Xenopus laevis oocytes; parameters: scale not given: the % may be the effect or the level left
[14] = target: Monocarboxylate transporter 8 (Rattus norvegicus) (UniProt Q8K1P8); experiment: TP_TRANSPORTER: inhibition of thyroxine uptake (thyroxine:10nM, Tryptophan: 100 uM) in Xenopus laevis oocytes; parameters: scale not given: the % may be the effect or the level left
[15] = target: Monocarboxylate transporter 8 (Rattus norvegicus) (UniProt Q8K1P8); experiment: TP_TRANSPORTER: inhibition of 3,3',5-triiodothyronine uptake (3,3',5-triiodothyronine:10nM, Tryptophan: 100 uM) in Xenopus laevis oocytes; parameters: scale not given: the % may be the effect or the level left

SMILES: N[C@@H](Cc1ccc(O)cc1)C(=O)O
- Activity [1]: 0%
- Activity [2]: 37%
- Activity [3]: is not a substrate [-]

SMILES: N[C@@H](Cc1ccccc1)C(=O)O
- Activity [3]: is not a substrate [-]

SMILES: CC(C)C[C@H](N)C(=O)O
- Activity [3]: is not a substrate [-]

SMILES: O=C(CBr)N[C@@H](Cc1cc(I)c(Oc2ccc(O)c(I)c2)c(I)c1)C(=O)O
- Activity [4]: 90%
- Activity [5]: 67%

SMILES: O=C1OC(c2ccc(O)c(S(=O)(=O)O)c2)(c2ccc(O)c(S(=O)(=O)O)c2)c2c(Br)c(Br)c(Br)c(Br)c21
- Activity [6]: 81%
- Activity [7]: 94%

SMILES: N[C@@H](Cc1cc(I)c(Oc2cc(I)c(O)c(I)c2)c(I)c1)C(=O)O
- Activity [8]: 69%
- Activity [9]: 26%

SMILES: NC(Cc1ccc(Oc2ccc(O)c(I)c2)c(I)c1)C(=O)O (stereo unspecified)
- Activity [3]: substrate [+]

SMILES: N[C@@H](Cc1cc(I)c(Oc2cc(I)c(OS(=O)(=O)O)c(I)c2)c(I)c1)C(=O)O
- Activity [3]: is not a substrate [-]

SMILES: N[C@@H](Cc1ccc(Oc2cc(I)c(O)c(I)c2)c(I)c1)C(=O)O
- Activity [10]: 24%
- Activity [11]: 72%

SMILES: O=C(O)[C@@H](Cc1cc(I)c(Oc2cc(I)c(O)c(I)c2)c(I)c1)NS(=O)(=O)O
- Activity [3]: is not a substrate [-]

SMILES: N[C@H](Cc1cc(I)c(Oc2cc(I)c(O)c(I)c2)c(I)c1)C(=O)O
- Activity [12]: 21%
- Activity [13]: 76%

SMILES: N[C@@H](Cc1c[nH]c2ccccc12)C(=O)O
- Activity [14]: 22%
- Activity [15]: 0%
- Activity [3]: is not a substrate [-]
